Target: ROCK2 (Homo sapiens, UniProt O75116)
Assay: ROCK assay: phosphorylation of FITC peptide substrate, LABCHIP 3000 mobility shift
Type: biochemical
Details: 5 μM ATP, 1.5 μM peptide substrate; read-out: ROCK2 Activity (ROCK IC50 range)
Summary of the method: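 Rho kinase variant phosphorylates 1.5 μM FITC-AHA-AKRRRLSSLRA-OH with 5 μM ATP in 20 mM HEPES pH 7.5, 20 mM MgCl2, 0.015% Brij-35, 4 mM DTT, DMSO <2%. EDTA stops the reaction, and phospho and non-phospho peptides are resolved by LabChip 3000 mobility shift. IC50 from dose-response curve fit.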

Sequence of ROCK2 (O75116 whole entry, species assumed): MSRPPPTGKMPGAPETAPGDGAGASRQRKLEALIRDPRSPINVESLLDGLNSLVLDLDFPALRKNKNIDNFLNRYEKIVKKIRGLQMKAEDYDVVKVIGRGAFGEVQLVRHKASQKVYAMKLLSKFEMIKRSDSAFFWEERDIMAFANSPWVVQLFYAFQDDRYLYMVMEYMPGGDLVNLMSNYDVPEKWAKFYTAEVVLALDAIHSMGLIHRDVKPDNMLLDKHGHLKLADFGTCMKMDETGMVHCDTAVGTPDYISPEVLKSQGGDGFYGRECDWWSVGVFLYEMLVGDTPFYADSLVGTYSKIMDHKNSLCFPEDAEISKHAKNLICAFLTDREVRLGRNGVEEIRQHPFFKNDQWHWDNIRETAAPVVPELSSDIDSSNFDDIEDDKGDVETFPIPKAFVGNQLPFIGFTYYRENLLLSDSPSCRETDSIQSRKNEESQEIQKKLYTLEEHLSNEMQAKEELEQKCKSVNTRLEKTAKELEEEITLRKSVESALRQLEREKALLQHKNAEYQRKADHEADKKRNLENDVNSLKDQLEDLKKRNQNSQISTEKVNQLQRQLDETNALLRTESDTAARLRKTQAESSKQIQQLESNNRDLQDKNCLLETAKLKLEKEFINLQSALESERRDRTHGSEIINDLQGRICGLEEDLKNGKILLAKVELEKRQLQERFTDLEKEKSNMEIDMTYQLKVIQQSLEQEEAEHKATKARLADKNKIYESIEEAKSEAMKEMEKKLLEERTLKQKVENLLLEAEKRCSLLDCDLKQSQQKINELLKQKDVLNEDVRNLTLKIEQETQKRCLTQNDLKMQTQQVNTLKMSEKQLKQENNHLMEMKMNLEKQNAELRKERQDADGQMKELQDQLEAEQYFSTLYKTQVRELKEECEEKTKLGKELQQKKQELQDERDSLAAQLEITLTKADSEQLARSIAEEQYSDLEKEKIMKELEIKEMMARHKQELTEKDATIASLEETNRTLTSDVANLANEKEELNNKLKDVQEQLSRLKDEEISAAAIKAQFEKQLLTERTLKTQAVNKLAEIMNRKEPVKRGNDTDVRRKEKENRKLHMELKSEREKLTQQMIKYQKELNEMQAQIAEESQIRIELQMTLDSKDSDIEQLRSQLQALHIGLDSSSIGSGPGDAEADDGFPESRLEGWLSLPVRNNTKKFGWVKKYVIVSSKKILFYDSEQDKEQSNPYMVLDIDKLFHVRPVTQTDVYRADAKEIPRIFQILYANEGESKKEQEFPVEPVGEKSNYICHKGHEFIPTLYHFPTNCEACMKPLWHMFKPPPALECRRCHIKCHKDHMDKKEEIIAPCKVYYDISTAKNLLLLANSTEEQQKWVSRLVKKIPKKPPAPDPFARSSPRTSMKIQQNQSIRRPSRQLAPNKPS

IC50 [nM] | Compound
2.01 to 5 | CN(C)CCOc1ccc2c(C(=O)NC3CC4(C3)CC(c3n[nH]c(=O)c5ccccc35)C4)cnn2c1 [Example 183, 6-(2-(dimethylamino)ethoxy)-N-((aR)-6-(4-oxo-3,4-dihydrophthalazin-1-yl)spiro[3.3]heptan-2-yl)pyrazolo[1,5-a]pyridine-3-carboxamide]
0.2 to 2 | CC1(C)CN(CCOc2ccc3c(C(=O)NC4CC5(C4)CC(c4n[nH]c(=O)c6ccccc46)C5)cnn3c2)CCC1O [Example 184, 6-(2-(4-hydroxy-3,3-dimethylpiperidin-1-yl)ethoxy)-N-((aR)-6-(4-oxo-3,4-dihydrophthalazin-1-yl)spiro[3.3]heptan-2-yl)pyrazolo[1,5-a]pyridine-3-carboxamide]
2.01 to 5 | O=C(NC1CC2(C1)CC(c1n[nH]c(=O)c3ccccc13)C2)c1cnn2cc(OCCN3CCC3)ccc12 [Example 186, 6-(2-(azetidin-1-yl)ethoxy)-N-((aR)-6-(4-oxo-3,4-dihydrophthalazin-1-yl)spiro[3.3]heptan-2-yl)pyrazolo[1,5-a]pyridine-3-carboxamide]
0.2 to 2 | CC1(C)CN(CCOc2ccc3c(C(=O)NC4CC5(C4)CC(c4n[nH]c(=O)c6ccccc46)C5)cnn3c2)CCO1 [Example 187, 6-(2-(2,2-dimethylmorpholino)ethoxy)-N-((aR)-6-(4-oxo-3,4-dihydrophthalazin-1-yl)spiro[3.3]heptan-2-yl)pyrazolo[1,5-a]pyridine-3-carboxamide]
0.2 to 2 | CN1CCN(CCOc2ccc3c(C(=O)NC4CC5(C4)CC(c4n[nH]c(=O)c6ccccc46)C5)cnn3c2)CC1 [Example 188, 6-(2-(4-methylpiperazin-1-yl)ethoxy)-N-((aR)-6-(4-oxo-3,4-dihydrophthalazin-1-yl)spiro[3.3]heptan-2-yl)pyrazolo[1,5-a]pyridine-3-carboxamide]
0.2 to 2 | O=C(NC1CC2(C1)CC(c1n[nH]c(=O)c3ccccc13)C2)c1cnn2cc(OCCN3CCC(F)C3)ccc12 [Example 189, 6-(2-((R)-3-fluoropyrrolidin-1-yl)ethoxy)-N-((aR)-6-(4-oxo-3,4-dihydrophthalazin-1-yl)spiro[3.3]heptan-2-yl)pyrazolo[1,5-a]pyridine-3-carboxamide]
0.2 to 2 | O=C(NC1CC2(C1)CC(c1n[nH]c(=O)c3ccccc13)C2)c1cnn2cc(OCCN3CCC(F)C3)ccc12 [Example 190, 6-(2-((S)-3-fluoropyrrolidin-1-yl)ethoxy)-N-((aR)-6-(4-oxo-3,4-dihydrophthalazin-1-yl)spiro[3.3]heptan-2-yl)pyrazolo[1,5-a]pyridine-3-carboxamide]
2.01 to 5 | O=C(N[C@H]1CC2(C1)C[C@H](c1n[nH]c(=O)c3ccccc31)C2)c1cnn2cc(CCCN3CCOCC3)ccc12 (stereo partly drawn) [Example 191, 6-(3-morpholinopropyl)-N-((aR)-6-(4-oxo-3,4-dihydrophthalazin-1-yl)spiro[3.3]heptan-2-yl)pyrazolo[1,5-a]pyridine-3-carboxamide]
2.01 to 5 | O=C(NC1CC2(C1)CC(c1n[nH]c(=O)c3ccccc13)C2)c1cnn2cc(CCCN3CCCC3)ccc12 [Example 192, N-((aR)-6-(4-oxo-3,4-dihydrophthalazin-1-yl)spiro[3.3]heptan-2-yl)-6-(3-(pyrrolidin-1-yl)propyl)pyrazolo[1,5-a]pyridine-3-carboxamide]
5.1 to 15 | CN(C)CCCc1ccc2c(C(=O)NC3CC4(C3)CC(c3n[nH]c(=O)c5ccccc35)C4)cnn2c1 [Example 193, 6-(3-(dimethylamino)propyl)-N-((aR)-6-(4-oxo-3,4-dihydrophthalazin-1-yl)spiro[3.3]heptan-2-yl)pyrazolo[1,5-a]pyridine-3-carboxamide]
5.1 to 15 | O=C(NC1CC2(C1)CC(c1n[nH]c(=O)c3ccccc13)C2)c1cnn2cc(CCCNC3CC3)ccc12 (stereo not shown) [Example 194]
5.1 to 15 | O=C(NC1CC2(C1)CC(c1n[nH]c(=O)c3ccccc13)C2)c1cnn2cc(CCCO)ccc12 [Example 195, 6-(3-hydroxypropyl)-N-((aR)-6-(4-oxo-3,4-dihydrophthalazin-1-yl)spiro[3.3]heptan-2-yl)pyrazolo[1,5-a]pyridine-3-carboxamide]
2.01 to 5 | O=C(NC1CC2(C1)CC(c1n[nH]c(=O)c3ccccc13)C2)c1cnn2cc(CCCN3CCC(F)(F)CC3)ccc12 [Example 196, 6-(3-(4,4-difluoropiperidin-1-yl)propyl)-N-((aR)-6-(4-oxo-3,4-dihydrophthalazin-1-yl)spiro[3.3]heptan-2-yl)pyrazolo[1,5-a]pyridine-3-carboxamide]
0.2 to 2 | O=C(NC1CC2(C1)CC(c1n[nH]c(=O)c3ccccc13)C2)c1cnn2cc(CCCN3CCC(F)(F)C3)ccc12 [Example 197, 6-(3-(3,3-difluoropyrrolidin-1-yl)propyl)-N-((aR)-6-(4-oxo-3,4-dihydrophthalazin-1-yl)spiro[3.3]heptan-2-yl)pyrazolo[1,5-a]pyridine-3-carboxamide]
0.2 to 2 | CC(C)(O)CCc1ccc2c(C(=O)N[C@H]3CC4(C3)C[C@H](c3n[nH]c(=O)c5ccccc53)C4)cnn2c1 (stereo partly drawn) [Example 198, 6-(3-hydroxy-3-methylbutyl)-N-((aR)-6-(4-oxo-3,4-dihydrophthalazin-1-yl)spiro[3.3]heptan-2-yl)pyrazolo[1,5-a]pyridine-3-carboxamide]
2.01 to 5 | O=C(N[C@H]1CC2(C1)C[C@H](c1n[nH]c(=O)c3ccccc31)C2)c1cnn2cc(CCC(O)(C(F)(F)F)C(F)(F)F)ccc12 (stereo partly drawn) [Example 199, N-((aR)-6-(4-oxo-3,4-dihydrophthalazin-1-yl)spiro[3.3]heptan-2-yl)-6-(4,4,4-trifluoro-3-hydroxy-3-(trifluoromethyl)butyl)pyrazolo[1,5-a]pyridine-3-carboxamide]
5.1 to 15 | O=C(N[C@H]1CC2(C1)C[C@H](c1n[nH]c(=O)c3ccccc31)C2)c1cnn2cc(CN3CCOCC3)ccc12 (stereo partly drawn) [Example 200, 6-(morpholinomethyl)-N-((aR)-6-(4-oxo-3,4-dihydrophthalazin-1-yl)spiro[3.3]heptan-2-yl)pyrazolo[1,5-a]pyridine-3-carboxamide]
2.01 to 5 | CN1CCN(Cc2ccc3c(C(=O)NC4CC5(C4)CC(c4n[nH]c(=O)c6ccccc46)C5)cnn3c2)CC1 [Example 201, 6-((4-methylpiperazin-1-yl)methyl)-N-((aR)-6-(4-oxo-3,4-dihydrophthalazin-1-yl)spiro[3.3]heptan-2-yl)pyrazolo[1,5-a]pyridine-3-carboxamide]
5.1 to 15 | O=C(NC1CC2(C1)CC(c1n[nH]c(=O)c3ccccc13)C2)c1cnn2cc(CN3CCCCC3)ccc12 [Example 202, N-((aR)-6-(4-oxo-3,4-dihydrophthalazin-1-yl)spiro[3.3]heptan-2-yl)-6-(piperidin-1-ylmethyl)pyrazolo[1,5-a]pyridine-3-carboxamide]
5.1 to 15 | CN(C)Cc1ccc2c(C(=O)NC3CC4(C3)CC(c3n[nH]c(=O)c5ccccc35)C4)cnn2c1 [Example 203, 6-((dimethylamino)methyl)-N-((aR)-6-(4-oxo-3,4-dihydrophthalazin-1-yl)spiro[3.3]heptan-2-yl)pyrazolo[1,5-a]pyridine-3-carboxamide]
0.2 to 2 | O=C(NC1CC2(C1)CC(c1n[nH]c(=O)c3ccccc13)C2)c1cnn2cc(Cc3ccccc3)ccc12 [Example 204, 6-benzyl-N-((aR)-6-(4-oxo-3,4-dihydrophthalazin-1-yl)spiro[3.3]heptan-2-yl)pyrazolo[1,5-a]pyridine-3-carboxamide]
2.01 to 5 | O=C(NC1CC2(C1)CC(c1n[nH]c(=O)c3ccccc13)C2)c1cnn2cc(CCC(=O)N3CCOCC3)ccc12 [Example 205, 6-(3-morpholino-3-oxopropyl)-N-((aR)-6-(4-oxo-3,4-dihydrophthalazin-1-yl)spiro[3.3]heptan-2-yl)pyrazolo[1,5-a]pyridine-3-carboxamide]
0.2 to 2 | O=C(NC1CC2(C1)CC(c1n[nH]c(=O)c3ccccc13)C2)c1cnn2cc(CCC(F)(F)F)ccc12 [Example 206, N-((aR)-6-(4-oxo-3,4-dihydrophthalazin-1-yl)spiro[3.3]heptan-2-yl)-6-(3,3,3-trifluoropropyl)pyrazolo[1,5-a]pyridine-3-carboxamide]
2.01 to 5 | N#CCCc1ccc2c(C(=O)NC3CC4(C3)CC(c3n[nH]c(=O)c5ccccc35)C4)cnn2c1 [Example 207, 6-(2-cyanoethyl)-N-((aR)-6-(4-oxo-3,4-dihydrophthalazin-1-yl)spiro[3.3]heptan-2-yl)pyrazolo[1,5-a]pyridine-3-carboxamide]
2.01 to 5 | O=C(NC1CC2(C1)CC(c1n[nH]c(=O)c3ccccc13)C2)c1cnn2cc(COCCN3CCOCC3)ccc12 [Example 208, 6-((2-morpholinoethoxy)methyl)-N-((aR)-6-(4-oxo-3,4-dihydrophthalazin-1-yl)spiro[3.3]heptan-2-yl)pyrazolo[1,5-a]pyridine-3-carboxamide]
5.1 to 15 | COCc1ccc2c(C(=O)NC3CC4(C3)CC(c3n[nH]c(=O)c5ccccc35)C4)cnn2c1 [Example 209, 6-(methoxymethyl)-N-((aR)-6-(4-oxo-3,4-dihydrophthalazin-1-yl)spiro[3.3]heptan-2-yl)pyrazolo[1,5-a]pyridine-3-carboxamide]
2.01 to 5 | COc1ncc(-c2ccc3c(C(=O)NC4CC5(C4)CC(c4n[nH]c(=O)c6ccccc46)C5)cnn3c2)cn1 [Example 210, 6-(2-methoxypyrimidin-5-yl)-N-((aR)-6-(4-oxo-3,4-dihydrophthalazin-1-yl)spiro[3.3]heptan-2-yl)pyrazolo[1,5-a]pyridine-3-carboxamide]

Compound | IC50 [nM]
O=C(NC1CC2(C1)CC(c1n[nH]c(=O)c3ccccc13)C2)c1cnn2cc(OCCN3CCC(F)(F)C3)ccc12 [Example 185, 6-(2-(3,3-difluoropyrrolidin-1-yl)ethoxy)-N-((aR)-6-(4-oxo-3,4-dihydrophthalazin-1-yl)spiro[3.3]heptan-2-yl)pyrazolo[1,5-a]pyridine-3-carboxamide] | 0.2 to 2

From patent US9902702B2, “Spirocycloheptanes as inhibitors of rock” (BRISTOL-MYERS SQUIBB COMPANY, priority 2014, dated 2018)
